Measurements as given in patent US12448399B2, “Cereblon-based KRAS degrading PROTACs and uses related thereto” (Arvinas Operations, Inc., priority 2023, dated 2025).

Target: T1, KRas-G12D (Homo sapiens, UniProt P01116, G12D)
T1 construct: insert the HiBiT tag onto the N-terminus of one or more of the endogenous KRas alleles; host or cells: AsPC-1 HiBiT-KRasG12D knock-in clone (one tagged allele, two untagged KRasG12D alleles)
Test: HiBiT Degradation Assay (G12D), AsPC-1 HiBiT-KRasG12D cells, 24 hr
Type: cell-based
Conditions: for Dmax: ASPC1, AsPC-1 cells, maximum degradation observed; for DC50: AsPC-1 cells
Description: AsPC-1 (CRL-1682) cells were purchased from ATCC and are homozygous for the G12D mutation in KRas. AsPC-1 cells were cultured in GIBCO RPMI-1640 (ThermoFisher Scientific, catalog #61870-036, with Glutamax, no HEPES, no Na Pyruvate) supplemented with 10% FBS (ThermoFisher Scientific, catalog #2060357) and 1× Penicillin-Streptomycin (ThermoFisher Scientific, catalog #15140122, 10000 U/ml, 100×). For degradation assays, 384 well plates were used. Alamar blue was purchased from ThermoFisher Scientific (A50101) and used according to manufacturer instructions. The Nano-Glo® HiBiT Lytic Detection System and Nano-Glo® HiBiT Blotting System were purchased from Promega (#N3050 and #N2410) and used according to manufacturer instructions.
To create the AsPC-1 HiBiT-KRasG12D cell line, CRISPR-Cas9 was used to insert the HiBiT tag onto the N-terminus of one or more of the endogenous KRas alleles. See Schwinn, M. K. et al. (2018) CRISPR-mediated tagging of endogenous proteins with a luminescent peptide, ACS Chem. Biol. 13(2), 467-474. After knock-in of the tag, individual clones were isolated by single cell dilution and screened for HiBiT insertion by PCR. A clone was identified that contained the desired HiBiT-KRasG12D sequence at one allele while the remaining two KRasG12D alleles were untagged. This clone was used in further studies.
AsPC-1 HiBiT-KRasG12D cells were plated at 9000 or 15,000 cells/well in a 384 well plate (Corning #3770). Compounds of the present disclosure and positive controls were diluted in the appropriate cell media and applied to the plated cells resulting in a final concentration titration of 10 μM to […] in 0.5% DMSO. Gambogic acid was used as a positive control for cytotoxicity and titrated from 10 μM to 78 nM. All assays were performed in triplicate. Cells were treated with compounds for 24 hr at 37° C. in an incubator containing 5% CO2. Following treatment, alamar blue was used to determine if any compounds led to a loss in cell viability after 24 hr. The 10× alamar blue reagent was added to a final concentration of 1× as recommended by the manufacturer and cells were returned to the incubator for 4 hr. Plates were then allowed to equilibrate to RT and fluorescence was measured using a Perkin-Elmer EnVision. After completion of the fluorescence read, the liquid from each well was removed and the cells were washed with PBS. The Nano-Glo® HiBiT detection reagent was prepared according to the manufacturer's instructions and added to each well after the PBS wash was removed. Following incubation at room temperature for 45 min, the luminescence was read using the ultra-sensitive luminescence aperture on the Envision instrument.
Fluorescence values from the alamar blue treatment were normalized to the DMSO-only control for each compound titration. HiBiT luminescence was normalized to the DMSO-only control and the fractional HiBiT signal was plotted versus the log of the PROTAC concentration and fit to a 4-parameter dose-response model to obtain the concentration of the compound that leads to half maximal degradation (DC50) as well as the maximum degradation observed (Dmax, conventionally expressed as a percentage of control).

T1 sequence (P01116 1-188 isoform P01116-2 G12D): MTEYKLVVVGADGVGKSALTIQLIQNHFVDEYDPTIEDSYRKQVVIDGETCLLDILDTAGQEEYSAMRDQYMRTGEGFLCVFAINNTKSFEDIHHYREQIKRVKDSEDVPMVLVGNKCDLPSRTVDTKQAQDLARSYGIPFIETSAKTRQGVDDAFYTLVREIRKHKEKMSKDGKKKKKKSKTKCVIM

Q: How did the Dmax turn out when `C#Cc1c(F)ccc2cc(O)cc(-c3ncc4c(N5CC6CCC(C5)N6)nc(OCCN5CCC(CC6CCN(c7cccc8c7CN(C7CCC(=O)NC7=O)C8=O)CC6)CC5)nc4c3F)c12` (stereo not drawn) [Compound 35, 3-[4-[4-[[1-[2-[4-(3,8-diazabicyclo[3.2.1]octan-3-yl)-7-(8-ethynyl-7-fluoro-3-hydroxy-1-naphthyl)-8-fluoro-pyrido[4,3-d]pyrimidin-2-yl]oxyethyl]-4-piperidyl]methyl]-1-piperidyl]-1-oxo-isoindolin-2-yl]piperidine-2,6-dione] was run?
A: Its Dmax is greater than 70%.

Q: And the DC50?
A: The DC50 was 100 to 5250 nM.

Q: Which DC50 does the source give for `CCc1cccc2cc(O)cc(-c3ncc4c(N5CC6CCC(C5)N6)nc(OCCN5CCN(c6ccc(C(=O)NC7CCC(=O)NC7=O)c(F)c6)CC5)nc4c3F)c12` (stereo not drawn) [Compound 37] here?
A: Its DC50 is greater than 1000 nM.

Q: How did the DC50 turn out when `CCc1cccc2cc(O)cc(-c3ncc4c(N5CC6CCC(C5)N6)nc(OCCN5CCC(c6ccc7c(c6)CN(C6CCC(=O)NC6=O)C7=O)CC5)nc4c3F)c12` (stereo not drawn) [Compound 38] was run?
A: The DC50 was 100 to 5250 nM.

Q: What does the source list for `CCc1cccc2cc(O)cc(-c3ncc4c(N5CC6CCC(C5)N6)nc(OCCN5CCN(c6ccc7c(c6)CN(C6CCC(=O)NC6=O)C7=O)CC5)nc4c3F)c12` (stereo not drawn) [Compound 39]?
A: Dmax: ≤ 25%; DC50: 250 to 1000 nM

Q: `CCc1cccc2cc(O)cc(-c3ncc4c(N5CC6CCC(C5)N6)nc(OCCN5CCN(c6ccc7c(c6)C(=O)N(C6CCC(=O)NC6=O)C7=O)CC5)nc4c3F)c12` (stereo not drawn) [Compound 40] was tested. Which Dmax did it give?
A: Its Dmax is no more than 25%.

Q: And the DC50?
A: Its DC50 is greater than 1000 nM.

Q: `CCc1cccc2cc(O)cc(-c3ncc4c(N5CC6CCC(C5)N6C)nc(OCCN5CCC(CC6CCN(CC7CCN(c8cccc9c8CN(C8CCC(=O)NC8=O)C9=O)CC7)CC6)CC5)nc4c3F)c12` (stereo not drawn) [Compound 42, 3-[4-[4-[[4-[[1-[2-[7-(8-ethyl-3-hydroxy-1-naphthyl)-8-fluoro-4-(8-methyl-3,8-diazabicyclo[3.2.1]octan-3-yl)pyrido[4,3-d]pyrimidin-2-yl]oxyethyl]-4-piperidyl]methyl]-1-piperidyl]methyl]-1-piperidyl]-1-oxo-isoindolin-2-yl] piperidine-2,6-dione] was tested. Which DC50 did it give?
A: Its DC50 is greater than 1000 nM.

Q: `C#Cc1c(F)ccc2cc(O)cc(-c3ncc4c(N5CC6CCC(C5)N6)nc(OCCN5CCC(CC6CCN(CC7CCN(c8cccc9c8CN(C8CCC(=O)NC8=O)C9=O)CC7)CC6)CC5)nc4c3F)c12` (stereo not drawn) [Compound 43, 3-[4-[4-[[4-[[1-[2-[4-(3,8-diazabicyclo[3.2.1]octan-3-yl)-7-(8-ethynyl-7-fluoro-3-hydroxy-1-naphthyl)-8-fluoro-pyrido[4,3-d]pyrimidin-2-yl]oxyethyl]-4-piperidyl]methyl]-1-piperidyl]methyl]-1-piperidyl]-1-oxo-isoindolin-2-yl] piperidine-2,6-dione] was tested. Which Dmax did it give?
A: Its Dmax is greater than 70%.

Q: And the DC50?
A: Its DC50 is less than 5100 nM.

Q: With `CCc1cccc2cc(O)cc(-c3nc(N4CC5CCC(C4)N5)c4cnc(OCCN5CCC(CC6CCN(CC7CCN(c8cccc9c8CN(C8(C)CCC(=O)NC8=O)C9=O)CC7)CC6)CC5)nc4c3F)c12` (stereo not drawn) [Compound 44] as the molecule, how does the DC50 read?
A: Its DC50 is greater than 1000 nM.

Q: `CCc1cccc2cc(O)cc(-c3ncc4c(N5CC6CCC(C5)N6)nc(OCCN5CCC(CC6CCN(c7cccc8c7CN(C7CCC(=O)N(C)C7=O)C8=O)CC6)CC5)nc4c3F)c12` (stereo not drawn) [Compound 45] was tested. Which DC50 did it give?
A: Its DC50 is 250 to 1000 nM.

Q: `CCc1cccc2cc(O)cc(-c3ncc4c(N5CC6CCC(C5)N6)nc(OCCN5CCC(CC6CCN(CC7CCN(c8cccc9c8CN(C8CCC(=O)N(C)C8=O)C9=O)CC7)CC6)CC5)nc4c3F)c12` (stereo not drawn) [Compound 46] was tested. Which DC50 did it give?
A: The DC50 was greater than 1000 nM.

Q: Which results are given for `CCc1cccc2cc(O)cc(-c3ncc4c(N5CC6CCC(C5)N6C)nc(OC[C@@]56CCCN5[C@H](COC(=O)N5CCN(c7ccc8c(c7)CN(C7CCC(=O)NC7=O)C8=O)CC5)CC6)nc4c3F)c12` (stereo partly drawn) [Compound 47, [(3S,8S)-8-[[7-(8-ethyl-3-hydroxy-1-naphthyl)-8-fluoro-4-(8-methyl-3,8-diazabicyclo[3.2.1]octan-3-yl)pyrido[4,3-d]pyrimidin-2-yl]oxymethyl]-1,2,3,5,6,7-hexahydropyrrolizin-3-yl]methyl4-[2-(2,6-dioxo-3-piperidyl)-1-oxo-isoindolin-5-yl]piperazine-1-carboxylate]?
A: Dmax: ≤ 25%; DC50: 250 to 1000 nM

Q: How did the DC50 turn out when `CCc1cccc2cc(O)cc(-c3ncc4c(N5CC6CCC(C5)N6C)nc(OC[C@]56CCCN5[C@@H](COC(=O)N5CCN(c7ccc8c(c7)CN(C7CCC(=O)NC7=O)C8=O)CC5)CC6)nc4c3F)c12` (stereo partly drawn) [Compound 48, [(3R,8R)-8-[[7-(8-ethyl-3-hydroxy-1-naphthyl)-8-fluoro-4-(8-methyl-3,8-diazabicyclo[3.2.1]octan-3-yl)pyrido[4,3-d]pyrimidin-2-yl]oxymethyl]-1,2,3,5,6,7-hexahydropyrrolizin-3-yl]methyl4-[2-(2,6-dioxo-3-piperidyl)-1-oxo-isoindolin-5-yl]piperazine-1-carboxylate] was run?
A: Its DC50 is greater than 1000 nM.

Q: With `CCc1cccc2cc(O)cc(-c3ncc4c(N5CC6CCC(C5)N6C)nc(OC[C@@]56CCCN5[C@H](COC(=O)N5CCN(c7cccc8c7CN(C7CCC(=O)NC7=O)C8=O)CC5)CC6)nc4c3F)c12` (stereo partly drawn) [Compound 49, [(3S,8S)-8-[[7-(8-ethyl-3-hydroxy-1-naphthyl)-8-fluoro-4-(8-methyl-3,8-diazabicyclo[3.2.1]octan-3-yl)pyrido[4,3-d]pyrimidin-2-yl]oxymethyl]-1,2,3,5,6,7-hexahydropyrrolizin-3-yl]methyl 4-[2-(2,6-dioxo-3-piperidyl)-1-oxo-isoindolin-4-yl]piperazine-1-carboxylate] as the molecule, how does the DC50 read?
A: The DC50 was greater than 1000 nM.

Q: `CCc1cccc2cc(O)cc(-c3ncc4c(N5CC6CCC(C5)N6)nc(OC[C@@]56CCCN5[C@H](COC(=O)N5CCN(c7ccc8c(c7)CN(C7CCC(=O)N(C)C7=O)C8=O)CC5)CC6)nc4c3F)c12` (stereo partly drawn) [Compound 50, [(3S,8S)-8-[[4-(3,8-diazabicyclo[3.2.1]octan-3-yl)-7-(8-ethyl-3-hydroxy-1-naphthyl)-8-fluoro-pyrido[4,3-d]pyrimidin-2-yl]oxymethyl]-1,2,3,5,6,7-hexahydropyrrolizin-3-yl]methyl4-[2-(1-methyl-2,6-dioxo-3-piperidyl)-1-oxo-isoindolin-5-yl]piperazine-1-carboxylate] was tested. Which Dmax did it give?
A: The Dmax was no more than 25%.

Q: What about the DC50 of the same molecule?
A: The DC50 was less than 5100 nM.

Q: `CCc1cccc2cc(O)cc(-c3ncc4c(N5CC6CCC(C5)N6C)nc(OC[C@]56CCCN5[C@@H](COC(=O)N5CCN(c7cccc8c7CN(C7CCC(=O)NC7=O)C8=O)CC5)CC6)nc4c3F)c12` (stereo partly drawn) [Compound 51, [(3R,8R)-8-[[7-(8-ethyl-3-hydroxy-1-naphthyl)-8-fluoro-4-(8-methyl-3,8-diazabicyclo[3.2.1]octan-3-yl)pyrido[4,3-d]pyrimidin-2-yl]oxymethyl]-1,2,3,5,6,7-hexahydropyrrolizin-3-yl]methyl4-[2-(2,6-dioxo-3-piperidyl)-1-oxo-isoindolin-4-yl]piperazine-1-carboxylate] was tested. Which DC50 did it give?
A: The DC50 was greater than 1000 nM.

Q: What does the source list for `CCc1cccc2cc(O)cc(-c3ncc4c(N5CC6CCC(C5)N6)nc(OC[C@@]56CCCN5[C@H](COC(=O)N5CCN(c7cccc8c7CN(C7CCC(=O)N(C)C7=O)C8=O)CC5)CC6)nc4c3F)c12` (stereo partly drawn) [Compound 52, [(3S,8S)-8-[[4-(3,8-diazabicyclo[3.2.1]octan-3-yl)-7-(8-ethyl-3-hydroxy-1-naphthyl)-8-fluoro-pyrido[4,3-d]pyrimidin-2-yl]oxymethyl]-1,2,3,5,6,7-hexahydropyrrolizin-3-yl]methyl 4-[2-(1-methyl-2,6-dioxo-3-piperidyl)-1-oxo-isoindolin-4-yl]piperazine-1-carboxylate]?
A: Dmax: ≤ 25%; DC50: 250 to 1000 nM

Q: How did the DC50 turn out when `CCc1cccc2cc(O)cc(-c3ncc4c(N5CC6CCC(C5)N6)nc(OC[C@]56CCCN5[C@@H](COC(=O)N5CCN(c7ccc8c(c7)CN(C7CCC(=O)N(C)C7=O)C8=O)CC5)CC6)nc4c3F)c12` (stereo partly drawn) [Compound 53, [(3R,8R)-8-[[4-(3,8-diazabicyclo[3.2.1]octan-3-yl)-7-(8-ethyl-3-hydroxy-1-naphthyl)-8-fluoro-pyrido[4,3-d]pyrimidin-2-yl]oxymethyl]-1,2,3,5,6,7-hexahydropyrrolizin-3-yl]methyl4-[2-(1-methyl-2,6-dioxo-3-piperidyl)-1-oxo-isoindolin-5-yl]piperazine-1-carboxylate] was run?
A: The DC50 was 100 to 5250 nM.
